From PMC7194293, “Living on the Edge: Physiological and Kinetic Trade-Offs Shape Thermal Tolerance in Intertidal Crabs From Tropical to Sub-Antarctic South America” (Frontiers in Physiology, 2020)
Where two headings read alike, the source gives them in different places.

What was measured:
Test in all cases: NADH oxidation at […] nm, muscle homogenate supernatant
[1] = system: T1, LDH (muscle lactate dehydrogenase); assay type: biochemical, Cardisoma guanhumi; conditions: 150 uM NADH, 80 mM imidazole-HCl pH 6.9, 26 °C (FRT); read-out: Km^Pyr / (mM) / FRT
T1 construct: native, not purified; supernatant of abdominal muscle homogenate, pooled crabs, Pernambuco, Brazil

[2] = system: T1, LDH (muscle lactate dehydrogenase); assay type: biochemical, Ocypode quadrata; conditions: 150 uM NADH, 80 mM imidazole-HCl pH 6.9, 26 °C (FRT); read-out: Km^Pyr / (mM) / FRT
[3] = system: T1, LDH (muscle lactate dehydrogenase); assay type: biochemical, Uca maracoani; conditions: 150 uM NADH, 80 mM imidazole-HCl pH 6.9, 26 °C (FRT); read-out: Km^Pyr / (mM) / FRT
[4] = system: T1, LDH (muscle lactate dehydrogenase); assay type: biochemical, Pachygrapsus transversus; conditions: 150 uM NADH, 80 mM imidazole-HCl pH 6.9, 26 °C (FRT); read-out: Km^Pyr / (mM) / FRT
[5] = system: T2, LDH (muscle lactate dehydrogenase); assay type: biochemical, Leptuca uruguayensis; conditions: 150 uM NADH, 80 mM imidazole-HCl pH 6.9, 15 °C (FRT); read-out: Km^Pyr / (mM) / FRT
T2 construct: native, not purified; supernatant of abdominal muscle homogenate, pooled crabs, Rio Grande, Brazil

[6] = system: T3, LDH (muscle lactate dehydrogenase); assay type: biochemical, Acanthocyclus albatrossis; conditions: 150 uM NADH, 80 mM imidazole-HCl pH 6.9, 9 °C (FRT); read-out: Km^Pyr / (mM) / FRT
T3 construct: native, not purified; supernatant of abdominal muscle homogenate, pooled crabs, Ushuaia, Argentina

[7] = system: T1, LDH (muscle lactate dehydrogenase); assay type: biochemical, Ucides cordatus; conditions: 150 uM NADH, 80 mM imidazole-HCl pH 6.9, 26 °C (FRT); read-out: Km^Pyr / (mM) / FRT
[8] = system: T2, LDH (muscle lactate dehydrogenase); assay type: biochemical, Armases rubripes; conditions: 150 uM NADH, 80 mM imidazole-HCl pH 6.9, 15 °C (FRT); read-out: Km^Pyr / (mM) / FRT
[9] = system: T1, LDH (muscle lactate dehydrogenase); assay type: biochemical, Aratus pisonii; conditions: 150 uM NADH, 80 mM imidazole-HCl pH 6.9, 26 °C (FRT); read-out: Km^Pyr / (mM) / FRT
[10] = system: T2, LDH (muscle lactate dehydrogenase); assay type: biochemical, Neohelice granulata; conditions: 150 uM NADH, 80 mM imidazole-HCl pH 6.9, 15 °C (FRT); read-out: Km^Pyr / (mM) / FRT
[11] = system: T3, LDH (muscle lactate dehydrogenase); assay type: biochemical, Halicarcinus planatus; conditions: 150 uM NADH, 80 mM imidazole-HCl pH 6.9, 9 °C (FRT); read-out: Km^Pyr / (mM) / FRT
[12] = system: T1, LDH (muscle lactate dehydrogenase); assay type: biochemical, Goniopsis cruentata; conditions: 150 uM NADH, 80 mM imidazole-HCl pH 6.9, 26 °C (FRT); read-out: Km^Pyr / (mM) / FRT

How did the Km [1] turn out when `CC(=O)C(=O)O` [pyruvate] was run?
The Km was 0.17 ± 0.01 mM.

And the Km [2]?
The Km was 0.15 ± 0.02 mM.

And the Km [3]?
The Km was 0.49 ± 0.05 mM.

What about the Km [4] of the same compound?
Its Km is 0.2 ± 0.01 mM.

What about the Km [5] of the same compound?
Its Km is 0.16 mM.

And the Km [6]?
The Km was 0.3 mM.

And the Km [7]?
The Km was 0.17 ± 0.01 mM.

And the Km [8]?
The Km was 0.15 ± 0.01 mM.

And the Km [9]?
Its Km is 0.11 mM.

What about the Km [10] of the same compound?
The Km was 0.32 ± 0.03 mM.

What about the Km [11] of the same compound?
The Km was 0.5 mM.

And the Km [12]?
The Km was 0.1 mM.
